# Experimental data published in patent US8158670B2 (priority 1996, dated 2012).
# “Also recorded” adds a separate entry of the source.
# What was measured:
# [1] = system: target (BO54 and M14) and non-target (HT29) cells; assay type: cell-based
# [2] = system: vascular smooth muscle cells; assay: In vitro DNA (3H-thymidine) and protein (3H-leucine) synthesis inhibition; assay type: cell-based; settings: 24 hour assays, 5% FBS
# Description: The ability of various therapeutic agents to inhibit DNA synthesis and protein synthesis in vascular smooth muscle cells was tested. ^3H-leucine and ^3H-thymidine uptake and cytotoxicity assays were conducted in accordance with the following protocols.
# 5 minute exposure: ^3H-leucine uptake: Vascular smooth muscle cells at 40,000 cells/ml were seeded in sterile 24 well plates at 1 ml/well. The plates were incubated overnight at 37° C., 5% CO2, 95% air in a humidified atmosphere (saturation). Log dilutions of the therapeutic agent of interest were incubated with the vascular smooth muscle cells for 5 minutes or 24 hours. […] Vials were counted on a Beckman LS2800 liquid scintillation counter interfaced with Beckman “Data Capture” software for conversion to a Lotus 1-2-3® file and analysis using Lotus 1-2-3®.
# 5 minute exposure: ^3H-thymidine uptake: Vascular smooth muscle cells were incubated in complete medium with 5% FBS (Gibco) overnight at 37° C. in a humidified, 5% CO2 environment in sterile 24 well plates. […] The cells were visually scored for viability and cell number. […] Vials were counted on a Beckman LS2800 liquid scintillation counter interfaced with Beckman “Data Capture” software for conversion to a Lotus 1-2-3® file and analysis using Lotus 1-2-3®.
# [3] = system: vascular smooth muscle cells of balloon-traumatized arteries; assay type: in vivo, pig; settings: pig, in vivo
# [4] = system: Vascular smooth muscle (BO54) cells; assay type: cell-based, baboon
molecule,measurement,setting,value
Pseudomonas exotoxin [PE],metabolic activity measured in the MTT assay,[1],nonspecific cytotoxicity
CN[C@@H]1C[C@H]2O[C@@](C)([C@@H]1OC)n1c3ccccc3c3c4c(c5c6ccccc6n2c5c31)C(=O)NC4 [staurosporin],therapeutic range: 3H-leucine (protein synthesis) versus 3H-thymidine (DNA synthesis) inhibition,[2],exhibits a differential between ^3H-leucine and ^3H-thymidine uptake
same,BRDU uptake (cell proliferation),[3],"inhibits target cell proliferation; also recorded: inhibited BRDU uptake (i.e., cell proliferation) without killing the vascular smooth muscle cells"
CC(=O)O[C@@H]1/C=C\[C@@](C)(O)C(=O)[C@@H](C)C/C=C\[C@H]2[C@H](O)C(C)=C(C)[C@H]3C(Cc4ccccc4)NC(=O)[C@]132 (stereo partly shown) [cytochalasin C],minimum effective dose (MED),[4],0.01 µg/mL
